Legend:
Cytochrome P450 3A4 [1] = target: T1, Cytochrome P450 3A4 (Homo sapiens, UniProt P08684); assay: Inhibition of recombinant CYP3A4 (unknown origin) expressed in baculosomes assessed as decrease in CYP3A4-CO binding at 10 uM preincubated for 5 mins measured after overnight washout with 100 mM potassium phosphate buffer by LC-tandem mass spectrometry analysis in presence of 1 mM NADPH; assay type: ADME; settings: recombinant enzyme
Cytochrome P450 3A4 [2] = target: T1, Cytochrome P450 3A4; assay: Binding affinity to CYP3A4 (unknown origin); assay type: ADME; settings: read-out: Ks
Cytochrome P450 3A4 [3] = target: T1, Cytochrome P450 3A4; assay: (§1) Inhibition of recombinant CYP3A4 (unknown origin) expressed in baculosomes in presence of 1 mM NADPH; assay type: ADME
CYP3A4 [4] = target: T2, CYP3A4 (Homo sapiens, UniProt P08684); assay: as §1; assay type: ADME; settings: human, recombinant CYP3A4 expressed in baculosomes
T2 sequence (P08684 whole entry): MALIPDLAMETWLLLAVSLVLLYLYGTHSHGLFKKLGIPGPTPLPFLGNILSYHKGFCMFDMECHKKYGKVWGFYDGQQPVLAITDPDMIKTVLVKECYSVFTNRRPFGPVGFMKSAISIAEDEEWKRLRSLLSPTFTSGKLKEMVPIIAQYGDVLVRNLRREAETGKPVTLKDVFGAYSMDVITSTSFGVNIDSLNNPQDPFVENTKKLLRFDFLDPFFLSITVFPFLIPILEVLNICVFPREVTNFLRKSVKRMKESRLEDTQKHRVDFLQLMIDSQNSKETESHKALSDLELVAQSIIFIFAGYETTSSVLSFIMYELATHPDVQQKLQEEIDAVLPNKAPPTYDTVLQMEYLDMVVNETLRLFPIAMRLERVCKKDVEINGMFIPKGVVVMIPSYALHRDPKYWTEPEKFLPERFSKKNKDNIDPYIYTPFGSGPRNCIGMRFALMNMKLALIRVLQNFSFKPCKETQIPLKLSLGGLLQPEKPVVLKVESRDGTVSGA

Cytochrome P450 3A4 [5] = target: T1, Cytochrome P450 3A4; assay: Inhibition of recombinant CYP3A4 (unknown origin) expressed in baculosomes assessed as decrease in CYP3A4-CO binding at 10 uM preincubated for 5 mins measured after […] by LC-tandem mass spectrometry analysis in presence of 1 mM NADPH; assay type: ADME; settings: recombinant enzyme
CYP3A4 [6] = target: T2, CYP3A4; assay: Inhibition of recombinant CYP3A4 (unknown origin) expressed in baculosomes assessed as enzyme remaining activity at 10 uM measured after 1.5 min in presence of 1 mM NADPH; assay type: ADME; settings: read-out: Activity
Cytochrome P450 3A4 [7] = target: T1, Cytochrome P450 3A4; assay: Inhibition of recombinant CYP3A4 (unknown origin) expressed in baculosomes in presence of 1 mM NADPH and 1 mM nucleophilic trapping agent methyl hydroxylamine; assay type: ADME; settings: recombinant enzyme
CYP3A4 [8] = target: T2, CYP3A4; assay: Residual activity of recombinant CYP3A4 (unknown origin) expressed in baculosomes at 10 uM measured after 1.5 min in presence of 1 mM NADPH
Cytochrome P450 3A4 [9] = target: T1, Cytochrome P450 3A4; assay: Inhibition of recombinant CYP3A4 (unknown origin) expressed in baculosomes in presence of 1 mM NADPH and 1 mM nucleophilic trapping agent superoxide dismutase; assay type: ADME; settings: recombinant enzyme
Cytochrome P450 3A4 [10] = target: T1, Cytochrome P450 3A4; assay: Inhibition of recombinant CYP3A4 (unknown origin) expressed in baculosomes in presence of 1 mM NADPH and 1 mM nucleophilic trapping agent glutathione; assay type: ADME; settings: recombinant enzyme
Cytochrome P450 3A4 [11] = target: T1, Cytochrome P450 3A4; assay: Inhibition of recombinant CYP3A4 (unknown origin) expressed in baculosomes in presence of 1 mM NADPH and 1 mM nucleophilic trapping agent N-acetyl lysine; assay type: ADME; settings: recombinant enzyme
Cytochrome P450 3A4 [12] = target: T1, Cytochrome P450 3A4; assay: Inhibition of recombinant CYP3A4 (unknown origin) expressed in baculosomes in presence of 1 mM NADPH and 1 mM nucleophilic trapping agent dimethyl pyrroline N-oxide; assay type: ADME; settings: recombinant enzyme
Cytochrome P450 3A4 [13] = target: T1, Cytochrome P450 3A4; assay: Inhibition of recombinant CYP3A4 (unknown origin) expressed in baculosomes in presence of 1 mM NADPH and 1 mM nucleophilic trapping agent potassium cyanide; assay type: ADME; settings: recombinant enzyme
Cytochrome P450 3A4 [14] = target: T1, Cytochrome P450 3A4; assay: Inhibition of recombinant CYP3A4 (unknown origin) expressed in baculosomes in presence of 1 mM NADPH and 1 mM nucleophilic trapping agent catalase; assay type: ADME; settings: recombinant enzyme
Cytochrome P450 3A4 [15] = target: T1, Cytochrome P450 3A4; assay: Inhibition of recombinant CYP3A4 (unknown origin) expressed in baculosomes in presence of 1 mM NADPH and 1 mM nucleophilic trapping agent N-acetyl cysteine; assay type: ADME; settings: recombinant enzyme
Cytochrome P450 3A4 [16] = target: T1, Cytochrome P450 3A4; assay: Inhibition of recombinant CYP3A4 (unknown origin) expressed in baculosomes in presence of 1 mM NADPH and 1 mM nucleophilic trapping agent semicarbazide; assay type: ADME; settings: recombinant enzyme

T1 sequence (P08684 whole entry): as above

CC(C)[C@H]1c2ccc(F)cc2CC[C@]1(O)CCN(C)CCCc1nc2ccccc2[nH]1
inhibition (INH) (Cytochrome P450 3A4 [1]): Active | Kd (Cytochrome P450 3A4 [2]): 1390 nM | Ki (Cytochrome P450 3A4 [3]): 820 nM | kinact (CYP3A4 [4]): 0.00133 s⁻¹ | inhibition (INH) (Cytochrome P450 3A4 [5]): Active | activity at 0.025 h, 10 µM (CYP3A4 [6]): 60%

COCC(=O)O[C@]1(CCN(C)CCCc2nc3ccccc3[nH]2)CCc2cc(F)ccc2[C@@H]1C(C)C [MIBEFRADIL]
inhibition (INH) (Cytochrome P450 3A4 [7]): Active | inhibition (INH) (Cytochrome P450 3A4 [1]): Active | residual activity at 0.025 h, 10 µM (CYP3A4 [8]): < 20% | inhibition (INH) (Cytochrome P450 3A4 [9]): Active | inhibition (INH) (Cytochrome P450 3A4 [10]): Active | inhibition (INH) (Cytochrome P450 3A4 [11]): Active | inhibition (INH) (Cytochrome P450 3A4 [12]): Active | inhibition (INH) (Cytochrome P450 3A4 [5]): Active | inhibition (INH) (Cytochrome P450 3A4 [13]): Active | inhibition (INH) (Cytochrome P450 3A4 [14]): Active | inhibition (INH) (Cytochrome P450 3A4 [15]): Active | inhibition (INH) (Cytochrome P450 3A4 [16]): Active
